Read-outs that look alike come from different tables or passages of the source.
Tests used:
[1] = tested on: Ovarian; assay: NCI SRB cytotoxicity, ovarian panel average; type: cell-based, human; conditions: average of cell lines
Protocol: (§1) The pyrazolochalcones (7e, 8e, 10e, 11e, 12e, 13e and 8f) have been tested against fifty nine human tumor cell lines derived from nine cancer types (leukemia, non-small cell lung cancer, colon cancer, CNS cancer, melanoma, ovarian cancer, renal cancer, prostate cancer and breast cancer) as per the NCI protocol. For each compound, dose response curves for individual cell lines have been measured at a minimum of five concentrations at 10 fold dilutions. A protocol of 48 h continuous drug exposure has been used, and a sulforhodamine B (SRB) protein assay has been used to estimate cell viability or growth. The concentration for 50% cell growth inhibition (GI50), 50% cell death (LC50, 50% growth) and total cell growth inhibition (TGI, 0% growth) values were tabulated (Table-1). DMSO was used as control to calculate the values of GI50, LC50 and TGI. The compounds 7e, 8e, 10e, 11e, 12e, 13e and 8f has been evaluated for their in vitro cytotoxicity in […] cell lines from nine human cancer types of leukemia (K-562, SR), non-small cell lung (Hop-62, NCI-H226, NCI-H522), colon (HCT-116, HCT-15, HCC-2998), CNS (SF-539), melanoma (SK-MEL-5, UACC-62, M14), ovarian (IGROV1), renal (A498), prostate (PC3) and breast (BT-549, MDA-MB-435, HS578T) origin. The results are expressed as percent of cell growth determined relative to that of untreated control cells (Table 2).
(§2) Each cancer type represents the average of six to eight different cancer cell lines.

[2] = tested on: Renal; assay: NCI SRB cytotoxicity, renal panel average; type: cell-based, human; conditions: average of cell lines
Protocol: as §1, §2

[3] = tested on: 786-0; assay: NCI SRB cytotoxicity, renal 786-0; type: cell-based; conditions: Homo sapiens, 48 h exposure
Protocol: as §1

[4] = tested on: NCI-H23; assay: NCI SRB cytotoxicity, non-small cell lung NCI-H23; type: cell-based; conditions: Homo sapiens, 48 h exposure
Protocol: as §1

[5] = tested on: BT-549; assay: NCI SRB cytotoxicity, breast BT-549; type: cell-based; conditions: Homo sapiens, 48 h exposure
Protocol: as §1

[6] = tested on: NCIH322M; assay: NCI SRB cytotoxicity, non-small cell lung NCIH322M; type: cell-based; conditions: Homo sapiens, NCI-H322M, 48 h exposure
Protocol: as §1

[7] = tested on: TK-10; assay: NCI SRB cytotoxicity, renal TK-10; type: cell-based; conditions: Homo sapiens, 48 h exposure
Protocol: as §1

[8] = tested on: Prostate; assay: NCI SRB cytotoxicity, prostate panel average; type: cell-based, human; conditions: average of cell lines
Protocol: as §1, §2

[9] = tested on: human tumor cell lines; assay: NCI SRB cytotoxicity, all fifty nine human tumor cell lines; type: cell-based; design: Log10 TGI mean graph midpoint (MG_MID): unit not given here; conditions: for GI50: Homo sapiens
Protocol: as §1
The mean graph midpoint values of Log10 TGI and Log10 LC50 as well as Log10 GI50 for compounds 7e, 8e, 10e, 11e, 12e, 13e and 8f is listed in Table-3. […] The mean graph mid points of Log10 TGI and Log10, LC50 have shown similar pattern to the log10 GI50 mean graph mid points.

[10] = tested on: NCI/ADR-RES; assay: NCI SRB cytotoxicity, ovarian NCI/ADR-RES; type: cell-based; conditions: Homo sapiens, 48 h exposure
Protocol: as §1

[11] = tested on: SK-MEL-5; assay: NCI SRB cytotoxicity, melanoma SK-MEL-5; type: cell-based; conditions: Homo sapiens, 48 h exposure
Protocol: as §1

[12] = tested on: SW-620; assay: NCI SRB cytotoxicity, colon SW-620; type: cell-based; conditions: Homo sapiens, 48 h exposure
Protocol: as §1

[13] = tested on: A498; assay: NCI SRB cytotoxicity, renal A498; type: cell-based; conditions: Homo sapiens, 48 h exposure
Protocol: as §1

[14] = tested on: Breast; assay: NCI SRB cytotoxicity, breast panel average; type: cell-based, human; conditions: average of cell lines
Protocol: as §1, §2

[15] = tested on: IGROV1; assay: NCI SRB cytotoxicity, ovarian IGROV1; type: cell-based; conditions: Homo sapiens, IGROV-1, 48 h exposure
Protocol: as §1

[16] = tested on: KM12; assay: NCI SRB cytotoxicity, colon KM12; type: cell-based; conditions: Homo sapiens, 48 h exposure
Protocol: as §1

[17] = tested on: NCI-H226; assay: NCI SRB cytotoxicity, non-small cell lung NCI-H226; type: cell-based; conditions: Homo sapiens, 48 h exposure
Protocol: as §1

[18] = tested on: CNS; assay: NCI SRB cytotoxicity, CNS panel average; type: cell-based, human; conditions: average of cell lines
Protocol: as §1, §2

[19] = tested on: OVCAR-5; assay: NCI SRB cytotoxicity, ovarian OVCAR-5; type: cell-based; conditions: Homo sapiens, 48 h exposure
Protocol: as §1

[20] = tested on: Leukemia; assay: NCI SRB cytotoxicity, leukemia panel average; type: cell-based, human; conditions: average of cell lines
Protocol: as §1, §2

[21] = tested on: UO-31; assay: NCI SRB cytotoxicity, renal UO-31; type: cell-based; conditions: Homo sapiens, 48 h exposure
Protocol: as §1

[22] = tested on: HL-60(TB); assay: NCI SRB cytotoxicity, leukemia HL-60(TB); type: cell-based; conditions: Homo sapiens, 48 h exposure
Protocol: as §1

[23] = tested on: MOLT-4; assay: NCI SRB cytotoxicity, leukemia MOLT-4; type: cell-based; conditions: Homo sapiens, 48 h exposure
Protocol: as §1

[24] = tested on: T-47D; assay: NCI SRB cytotoxicity, breast T-47D; type: cell-based; conditions: Homo sapiens, T47D, 48 h exposure
Protocol: as §1

[25] = tested on: RPMI-8226; assay: NCI SRB cytotoxicity, leukemia RPMI-8226; type: cell-based; conditions: Homo sapiens, 48 h exposure
Protocol: as §1

[26] = tested on: HCT-15; assay: NCI SRB cytotoxicity, colon HCT-15; type: cell-based; conditions: Homo sapiens, 48 h exposure
Protocol: as §1

[27] = tested on: A549/ATCC; assay: NCI SRB cytotoxicity, non-small cell lung A549/ATCC; type: cell-based; conditions: Homo sapiens, 48 h exposure
Protocol: as §1

[28] = tested on: MDA-MB-435; assay: NCI SRB cytotoxicity, breast panel MDA-MB-435; type: cell-based; conditions: Homo sapiens, 48 h exposure
Protocol: as §1

[29] = tested on: Colon; assay: NCI SRB cytotoxicity, colon panel average; type: cell-based, human; conditions: average of cell lines
Protocol: as §1, §2

[30] = tested on: ACHN; assay: NCI SRB cytotoxicity, renal ACHN; type: cell-based; conditions: Homo sapiens, 48 h exposure
Protocol: as §1

[31] = tested on: MCF7; assay: NCI SRB cytotoxicity, breast MCF7; type: cell-based; conditions: Homo sapiens, 48 h exposure
Protocol: as §1

[32] = tested on: HOP-62; assay: NCI SRB cytotoxicity, non-small cell lung HOP-62; type: cell-based; conditions: Homo sapiens, 48 h exposure
Protocol: as §1

[33] = tested on: MDA-MB-231/ATCC; assay: NCI SRB cytotoxicity, breast MDA-MB-231/ATCC; type: cell-based; conditions: Homo sapiens, 48 h exposure
Protocol: as §1

[34] = tested on: RXF 393; assay: NCI SRB cytotoxicity, renal RXF 393; type: cell-based; conditions: Homo sapiens, 48 h exposure
Protocol: as §1

[35] = Homo sapiens, read-out: Log10 GI50 (concentration in mol/L causing 50% growth inhibition) (converted)
[36] = Homo sapiens, read-out: Log10 LC50 (concentration in mol/L causing 50% cell death) (converted)

COc1ccc(C(=O)/C=C/c2cc(-c3cc(OC)c(OC)c(OC)c3)n[nH]2)cc1OC [8e, (E)-1-(3,4-dimethoxyphenyl)-3-(3-(3,4,5-trimethoxyphenyl)-1H-pyrazol-5-yl)prop-2-en-1-one]
GI50 [1, 35]: 2090 nM
CC50 [1, 36]: 15100 nM
Log10 TGI (concentration in mol/L causing total growth inhibition (0% growth)) [1]: −5.29 mol/L
GI50 [2, 35]: 1510 nM
CC50 [2, 36]: 6610 nM
Log10 TGI (concentration in mol/L causing total growth inhibition (0% growth)) [2]: −5.51 mol/L
GI50 [3]: 1400 nM
GI50 [4]: 2150 nM
GI50 [5]: 1440 nM
GI50 [6]: 1520 nM
GI50 [7]: 1330 nM
GI50 [8, 35]: 871 nM
CC50 [8, 36]: 5250 nM
Log10 TGI (concentration in mol/L causing total growth inhibition (0% growth)) [8]: −5.64 mol/L
GI50 ([9]; across fifty nine cell lines in nine cell panels, read-out: GI50 value range): 180 to 29200 nM
GI50 ([9]; against human tumor cell lines, read-out: Log10 GI50 mean graph midpoint (MG_MID) (converted)): 1350 nM
cytotoxicity ([9]; against cancer cell lines, in words): significant cytotoxicity
Log10 TGI mean graph midpoint (MG_MID) ([9]; against human tumor cell lines): −5.47
LC50 ([9]; against human tumor cell lines, read-out: Log10 LC50 mean graph midpoint (MG_MID) (converted)): 10500 nM
GI50 [10]: 3130 nM
GI50 [11]: 1650 nM
GI50 [12]: 1370 nM
GI50 [13]: 1480 nM
GI50 [14, 35]: 1230 nM
CC50 [14, 36]: 15100 nM
Log10 TGI (concentration in mol/L causing total growth inhibition (0% growth)) [14]: −5.47 mol/L
GI50 [15]: 1800 nM
GI50 [16]: 1070 nM
GI50 [17]: 1690 nM
GI50 [18, 35]: 1410 nM
LC50 [18, 36]: 6170 nM
Log10 TGI (concentration in mol/L causing total growth inhibition (0% growth)) [18]: −5.53 mol/L
GI50 [19]: 1590 nM
GI50 [20, 35]: 794 nM
CC50 [20, 36]: 97700 nM
Log10 TGI (concentration in mol/L causing total growth inhibition (0% growth)) [20]: −5.19 mol/L
GI50 [21]: 1280 nM
GI50 [22]: 1440 nM
GI50 [23]: 2110 nM
GI50 [24]: 1630 nM
GI50 [25]: 240 nM
GI50 [26]: 1270 nM
GI50 [27]: 1860 nM
GI50 [28]: 750 nM
GI50 [29, 35]: 1410 nM
LC50 [29, 36]: 6170 nM
Log10 TGI (concentration in mol/L causing total growth inhibition) [29]: −5.52 mol/L
GI50 [30]: 1660 nM
GI50 [31]: 820 nM
GI50 [32]: 1440 nM
GI50 [33]: 1480 nM
GI50 [34]: 1350 nM
